Assay results reported in patent US20140349320A1, “Using Adaptive Immunity to Detect Drug Resistance” (The Trustees of the University of Pennsylvania, priority 2011, published 2014).

Experiments:
[1] = test system: MTB strains (Beijing family, wild-type parent and rpoB H445D rifampicin-resistant isolate); assay type: cell-based, Mycobacterium tuberculosis
[2] = test system: MTB strains (Haarlem family, wild-type parent and rpoB S450L rifampicin-resistant isolate); assay type: cell-based, Mycobacterium tuberculosis

Row | Structure (SMILES) | MIC [1] [µg/mL] | drug susceptibility [1] | drug susceptibility [2]
1 | NNC(=O)c1ccncc1 [isoniazid] | < 0.2 | susceptible | susceptible
2 | CC[C@@H](CO)NCCN[C@@H](CC)CO [ethambutol] |  | susceptible | susceptible
3 | NC(=O)c1cnccn1 [pyrazinamide] |  | susceptible | susceptible
